Data on 2 sequences can be found in patent publication US20260200987A1, “PEPTIDE FOR CARTILAGE REGENERATION, AND USES THEREOF” (CAREGEN CO., LTD., priority 2022, published 2026).

In data set [1] the test system is human adipose-derived mesenchymal stem cells (AD-MSC). Description: SRB staining, cell morphology changes. Particulars: peptide at different concentrations, FIG. 1 and FIG. 2. It is filed as cell-based. On the procedure:
Additionally, for SRB staining, after suctioning the medium from the plate, 60 μL of 3.7% formalin was added to the 96-well plate to be stained and fixed for 1 minute. After suctioning 3.7% formalin, 70 μL of SRB staining solution (sulforhodamine B sodium salt (sigma, S9012): 0.2 g in 100 mL DDW) was added and stained. The plate was covered with aluminum foil, blocked from light, and incubated overnight at room temperature. After washing with 100 μL of 1% acetic acid using a multi-pipette, it was dried and observed under a microscope.
A general note: The SRB assay estimates cell density from bound dye.

Data set [2] has the same test system. Description: CCK-8 assay, cytotoxicity. The class given is cell-based. The following applies: after 7 days, peptide at different concentrations, FIG. 3 and FIG. 4. For orientation: Formazan colour is commonly taken as a measure of viable cells.
Experimental: Specifically, AD-MSC cells were seeded in 96-well plates at a density of 1.5×10^3 cells/well and cultured in Dulbecco's Modified Eagle's Medium (DMEM) supplemented with 10% FBS for 24 hours. Then, the medium was replaced with DMEM medium supplemented with 5% FBS, and Peptide-1 or Peptide-2 was treated at different concentrations, respectively. Subsequently, the medium was replaced every 3 days and Peptide-1 or Peptide-2 was treated at different concentrations, respectively. To confirm CCK-8 activity, after 7 days, CCK-8 (Dojindo, CCK-8 kit) solution was added at 1/10 volume of the culture medium, and incubated for 2 hours. The culture medium was sampled and CCK-8 activity was confirmed at a wavelength of 450 nm using a microplate reader.

Ends that are not written are not given here.

In the case of FCRPRNDFF [Peptide-2, FCRPRNDFF], in data set [1], the “change in cell morphology in SRB staining” value is reported as “did not show any change in cell morphology”. Besides, the “toxicity toward adipose-derived mesenchymal stem cells (CCK-8 activity)” value in data set [2] was “did not exhibit toxicity”.

RIAFLWVRIK [Peptide-1, RIAFLWVRIK]: in data set [1], the “change in cell morphology in SRB staining” value is “did not show any change in cell morphology”. The “toxicity toward adipose-derived mesenchymal stem cells (CCK-8 activity)” value in data set [2] is given as “did not exhibit toxicity”.
